# Counter-ions that a name gives are not always drawn. Like-named read-outs stand apart in the source and are kept apart here.
# Biological target: hNav1.7 (Homo sapiens (Human), UniProt Q15858)
# Experiment: Tritiated sulfonamide competitive binding to membranes from cells expressing hNav1.7 and the β1 subunit;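 also: Filter-bound radioactivity counted by liquid scintillation, nonspecific binding defined with excess unlabelled ligand, IC50 fitted to percent inhibition of specific binding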
# [1] = read-out: Ligand Binding Assay, 100 pM [3H]compound, membranes with hNav1.7 and β1 subunit, 18 h, room temperature
# Chain of hNav1.7 (Q15858 other isoform, or with tags, fused parts or gaps): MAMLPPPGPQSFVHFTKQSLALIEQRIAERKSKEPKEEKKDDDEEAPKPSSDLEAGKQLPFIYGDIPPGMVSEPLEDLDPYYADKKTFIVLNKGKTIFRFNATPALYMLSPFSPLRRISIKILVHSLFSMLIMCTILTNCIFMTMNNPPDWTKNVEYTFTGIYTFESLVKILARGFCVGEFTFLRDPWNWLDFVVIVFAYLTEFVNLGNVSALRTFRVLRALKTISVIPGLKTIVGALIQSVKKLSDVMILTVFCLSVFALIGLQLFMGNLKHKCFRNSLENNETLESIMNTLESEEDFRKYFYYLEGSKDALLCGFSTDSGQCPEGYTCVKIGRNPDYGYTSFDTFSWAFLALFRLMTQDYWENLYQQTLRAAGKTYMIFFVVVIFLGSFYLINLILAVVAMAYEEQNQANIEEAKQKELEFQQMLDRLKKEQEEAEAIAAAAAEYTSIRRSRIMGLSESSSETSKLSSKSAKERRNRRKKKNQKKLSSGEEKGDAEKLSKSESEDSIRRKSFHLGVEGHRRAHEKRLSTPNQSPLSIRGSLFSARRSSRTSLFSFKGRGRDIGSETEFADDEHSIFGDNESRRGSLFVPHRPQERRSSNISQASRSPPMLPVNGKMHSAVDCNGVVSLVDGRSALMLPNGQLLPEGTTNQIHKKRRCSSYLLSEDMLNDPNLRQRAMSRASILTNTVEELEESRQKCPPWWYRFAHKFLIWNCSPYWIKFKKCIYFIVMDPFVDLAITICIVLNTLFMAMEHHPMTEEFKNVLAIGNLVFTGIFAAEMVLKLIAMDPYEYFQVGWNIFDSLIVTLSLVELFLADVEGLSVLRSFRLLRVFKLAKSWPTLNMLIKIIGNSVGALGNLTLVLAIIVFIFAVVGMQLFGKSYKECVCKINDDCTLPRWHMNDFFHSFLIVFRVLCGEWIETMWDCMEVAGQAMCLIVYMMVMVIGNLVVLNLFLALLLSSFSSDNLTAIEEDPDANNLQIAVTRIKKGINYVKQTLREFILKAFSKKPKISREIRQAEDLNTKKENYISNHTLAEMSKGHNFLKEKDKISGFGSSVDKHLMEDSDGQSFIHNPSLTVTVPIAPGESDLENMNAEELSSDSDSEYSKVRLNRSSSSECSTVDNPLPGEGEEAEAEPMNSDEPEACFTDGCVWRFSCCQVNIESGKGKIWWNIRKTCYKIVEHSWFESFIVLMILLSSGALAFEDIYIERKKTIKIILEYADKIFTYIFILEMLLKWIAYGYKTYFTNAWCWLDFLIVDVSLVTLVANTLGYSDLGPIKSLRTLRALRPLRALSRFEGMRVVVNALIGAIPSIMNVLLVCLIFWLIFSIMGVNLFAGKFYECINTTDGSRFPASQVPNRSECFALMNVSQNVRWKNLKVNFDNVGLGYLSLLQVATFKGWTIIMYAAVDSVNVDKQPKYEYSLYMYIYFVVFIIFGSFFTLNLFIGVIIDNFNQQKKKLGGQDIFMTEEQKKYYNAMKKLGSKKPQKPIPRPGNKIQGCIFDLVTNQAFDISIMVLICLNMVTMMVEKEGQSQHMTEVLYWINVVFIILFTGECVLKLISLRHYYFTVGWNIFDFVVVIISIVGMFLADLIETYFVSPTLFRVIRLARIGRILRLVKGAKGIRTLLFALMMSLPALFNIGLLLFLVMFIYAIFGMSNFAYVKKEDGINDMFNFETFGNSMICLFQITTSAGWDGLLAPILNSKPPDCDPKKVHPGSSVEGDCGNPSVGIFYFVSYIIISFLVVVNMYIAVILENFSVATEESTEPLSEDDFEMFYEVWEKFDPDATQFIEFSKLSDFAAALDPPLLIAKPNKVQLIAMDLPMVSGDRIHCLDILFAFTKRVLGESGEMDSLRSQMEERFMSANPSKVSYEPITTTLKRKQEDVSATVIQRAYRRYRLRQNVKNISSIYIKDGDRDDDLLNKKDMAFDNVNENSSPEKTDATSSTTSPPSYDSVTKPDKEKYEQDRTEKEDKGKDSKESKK
# Chain of hNav1.7 (Q07699 19-218 partner): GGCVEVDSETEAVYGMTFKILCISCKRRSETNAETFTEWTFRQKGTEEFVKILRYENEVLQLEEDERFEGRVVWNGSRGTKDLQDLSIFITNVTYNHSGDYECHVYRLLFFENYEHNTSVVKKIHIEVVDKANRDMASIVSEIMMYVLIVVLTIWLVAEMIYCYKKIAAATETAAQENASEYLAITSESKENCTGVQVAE
IC50 [1] [nM],Compound,further results
21.8,"O=C(NS(=O)(=O)C1CC1)c1cc(C2CC2)c(CN2CCC(OCc3ccc(F)cc3Cl)CC2)cc1F [Example 480, 4-((4-((2-chloro-4-fluorobenzyl)oxy)piperidin-1-yl)methyl)-5-cyclopropyl-N-(cyclopropylsulfonyl)-2-fluorobenzamide, trifluoroacetic acid salt]",
4.7,"O=C(NS(=O)(=O)C1CC1)c1cc(C2CC2)c(OC[C@H]2CCCN(Cc3ccc(F)cc3Cl)C2)cc1F [Example 340, (S)-4-((1-(2-chloro-4-fluorobenzyl)piperidin-3-yl)methoxy)-5-cyclopropyl-N-(cyclopropylsulfonyl)-2-fluorobenzamide, trifluoroacetic acid salt]",
2.6,"CS(=O)(=O)NC(=O)c1cc(C2CC2)c(O[C@@H]2CCCN(Cc3cc(F)ccc3C(F)(F)F)C2)cc1F [Example 318, (R)-5-cyclopropyl-2-fluoro-4-((1-(5-fluoro-2-(trifluoromethyl)benzyl)piperidin-3-yl)oxy)-N-(methylsulfonyl)benzamide]",
8.3,"O=C(NS(=O)(=O)C1CC1)c1cc(C2CC2)c(OCC2CCN(S(=O)(=O)c3cc(Cl)c(Br)cc3F)CC2)cc1F [Example 367, 4-((1-((4-bromo-5-chloro-2-fluorophenyl)sulfonyl)piperidin-4-yl)methoxy)-5-cyclopropyl-N-(cyclopropylsulfonyl)-2-fluorobenzamide]",
2.7,"C[C@H]1CC[C@@H](Oc2cc(F)c(C(=O)NS(C)(=O)=O)cc2C2CC2)CN1Cc1ccc(F)cc1Cl [Example 324, 4-(((3R,6S)-1-(2-chloro-4-fluorobenzyl)-6-methylpiperidin-3-yl)oxy)-5-cyclopropyl-2-fluoro-N-(methylsulfonyl)benzamide]",
2.4,"C[C@H]1CC[C@@H](Oc2cc(F)c(C(=O)NS(=O)(=O)N3CCC3)cc2C2CC2)CN1Cc1ccc(F)cc1Cl [Example 325, N-(azetidin-1-ylsulfonyl)-4-(((3R,6S)-1-(2-chloro-4-fluorobenzyl)-6-methylpiperidin-3-yl)oxy)-5-cyclopropyl-2-fluorobenzamide]",
23.4,"CCOc1ccc(CN2CCC[C@@H](Oc3cc(F)c(C(=O)NS(C)(=O)=O)cc3C3CC3)C2)c(OCC)c1 [Example 428, (R)-5-cyclopropyl-4-((1-(2,4-diethoxybenzyl)piperidin-3-yl)oxy)-2-fluoro-N-(methylsulfonyl)benzamide, trifluoroacetic acid salt]",
7.7,"CCS(=O)(=O)NC(=O)c1cc(C2CC2)c(OCC2CCN([C@H](C)c3ccc(F)cc3Cl)CC2)cc1F (single isomer, unassigned) [Example 246]",
9.9,"CC1(COc2cc(F)c(C(=O)NS(C)(=O)=O)cc2C2CC2)CN(Cc2cc(C(F)(F)F)cc(Cl)c2F)C1 [Example 593, 4-((1-(3-chloro-2-fluoro-5-(trifluoromethyl)benzyl)-3-methylazetidin-3-yl)methoxy)-5-cyclopropyl-2-fluoro-N-(methylsulfonyl)benzamide]",
12.5,"O=C(NS(=O)(=O)N1CCC1)c1cc(C2CC2)c(CN2CCO[C@H](Cc3ccc(Cl)c(Cl)c3)C2)cc1F [Example 459, (R)—N-(azetidin-1-ylsulfonyl)-5-cyclopropyl-4-((2-(3,4-dichlorobenzyl)morpholino)methyl)-2-fluorobenzamide]",
5,"CS(=O)(=O)NC(=O)c1cc(C2CC2)c(OCC2CCN(Cc3cc(Cl)c(F)c(Cl)c3)CC2)cc1F [Example 454, 5-cyclopropyl-4-((1-(3,5-dichloro-4-fluorobenzyl)piperidin-4-yl)methoxy)-2-fluoro-N-(methylsulfonyl)benzamide, trifluoroacetic acid salt]",
138,"CS(=O)(=O)NC(=O)c1cc(C2CC2)c(O[C@@H]2CCCN(Cc3ccc(S(C)(=O)=O)cc3Cl)C2)cc1F [Example 441, (R)-4-((1-(2-chloro-4-(methylsulfonyl)benzyl)piperidin-3-yl)oxy)-5-cyclopropyl-2-fluoro-N-(methylsulfonyl)benzamide, trifluoroacetic acid salt]",
54,"N#Cc1cc(C(=O)NS(=O)(=O)C2CC2)c(F)cc1OCC1CCN(Cc2cc(Cl)cc(OC(F)(F)F)c2)CC1 [Example 409, 4-((1-(3-chloro-5-(trifluoromethoxy)benzyl)piperidin-4-yl)methoxy)-5-cyano-N-(cyclopropylsulfonyl)-2-fluorobenzamide, trifluoroacetic acid salt]",

# More lines, now with the values behind:
Compound,IC50 [1] [nM],further results
"O=C(NS(=O)(=O)N1CCC1)c1cc(C2CC2)c(O[C@@H]2CCCN(Cc3ccc(Cl)cc3Cl)C2)cc1F [Example 30, (R)—N-(azetidin-1-ylsulfonyl)-5-cyclopropyl-4-((1-(2,4-dichlorobenzyl)piperidin-3-yl)oxy)-2-fluorobenzamide]",,IC50: 2.7 nM
"CC1(C)CN(Cc2cc(F)c(C(=O)NS(C)(=O)=O)cc2C2CC2)CCC1Oc1cc(C(F)(F)F)c(Cl)cn1 (centres unmarked) [Example 561, 4-((4-((5-chloro-4-(trifluoromethyl)pyridin-2-yl)oxy)-3,3-dimethylpiperidin-1-yl)methyl)-5-cyclopropyl-2-fluoro-N-(methylsulfonyl)benzamide, trifluoroacetic acid salt]",,IC50: 2.8 nM
"CS(=O)(=O)NC(=O)c1cc(C2CC2)c(OCC2CCN(Cc3ccc(F)cc3)CC2)cc1F [Example 161, 5-Cyclopropyl-2-fluoro-4-((1-(4-fluorobenzyl)piperidin-4-yl)methoxy)-N-(methylsulfonyl)benzamide]",284,
"CS(=O)(=O)NC(=O)c1cc(C2CC2)c(OCC2CCN(Cc3ccc(Cl)c(C(F)(F)F)c3)CC2)cc1F [Example 229, 4-((1-(4-Chloro-3-(trifluoromethyl)benzyl)piperidin-4-yl)methoxy)-5-cyclopropyl-2-fluoro-N-(methylsulfonyl)benzamide]",7.3,
"CS(=O)(=O)NC(=O)c1cc(C2CC2)c(OCC2CN(C(c3ccccc3)c3cccc(F)c3)C2)cc1F (centres unmarked) [Example 154, 5-Cyclopropyl-2-fluoro-4-((1-((3-fluorophenyl)(phenyl)methyl)azetidin-3-yl)methoxy)-N-(methylsulfonyl)benzamide]",9.12,
"CS(=O)(=O)NC(=O)c1cc(C2CC2)c(OCC2CCN(c3ccccc3)CC2)cc1F [Example 79, 5-cyclopropyl-2-fluoro-N-(methylsulfonyl)-4-((1-phenylpiperidin-4-yl)methoxy)benzamide]",9.9,
CC1(COc2cc(F)c(C(=O)NS(C)(=O)=O)cc2C2CC2)CCN(Cc2cc(Cl)ccc2C(F)(F)F)CC1 [Example 122],2.4,
"CCCCS(=O)(=O)NC(=O)c1cc(C2CC2)c(OCC2CN(C(c3ccccc3)c3ccccc3)C2)cc1F [Example 65, 4-((1-benzhydrylazetidin-3-yl)methoxy)-N-(butylsulfonyl)-5-cyclopropyl-2-fluorobenzamide]",34,
"CS(=O)(=O)NC(=O)c1cc(C2CC2)c(OCC2CN([C@@H](c3ccccc3)c3cccc(C#N)c3)C2)cc1F [Example 108, (S)-4-((1-((3-Cyanophenyl)(phenyl)methyl)azetidin-3-yl)methoxy)-5-cyclopropyl-2-fluoro-N-(methylsulfonyl)benzamide]",94,
"O=C(NS(=O)(=O)C1CC1)c1cc(C2CC2)c(OCC2CCN(C(=O)c3ccc(Cl)c(Cl)c3)CC2)cc1F [Example 233, 5-Cyclopropyl-N-(cyclopropylsulfonyl)-4-((1-(3,4-dichlorobenzoyl)piperidin-4-yl)methoxy)-2-fluorobenzamide]",31,
"CS(=O)(=O)NC(=O)c1cc(C2CC2)c(OCC2CCN(C(=O)c3ccc(Cl)c(Cl)c3)CC2)cc1F [Example 232, 5-Cyclopropyl-4-((1-(3,4-dichlorobenzoyl)piperidin-4-yl)methoxy)-2-fluoro-N-(methylsulfonyl)benzamide]",64,
"CS(=O)(=O)NC(=O)c1cc(C2CC2)c(OCC2(C#N)CCN(Cc3cc(C(F)(F)F)cc(Cl)c3F)CC2)cc1F [Example 595, 4-((1-(3-chloro-2-fluoro-5-(trifluoromethyl)benzyl)-4-cyanopiperidin-4-yl)methoxy)-5-cyclopropyl-2-fluoro-N-(methylsulfonyl)benzamide]",34.3,
"COC[C@@H](c1cc(Cl)cc(Cl)c1)N1CCC(C)(COc2cc(F)c(C(=O)NS(C)(=O)=O)cc2C2CC2)CC1 (single isomer, unassigned) [Example 172]",3.9,
"O=C(NS(=O)(=O)C1CC1)c1cc(C2CC2)c(CN2CCC(Oc3ccc(F)cc3Cl)CC2)cc1F [Example 506, trifluoroacetic acid salt]",,"IC50 (read-out: Ligand Binding Assay, 100 pM [3H]compound, membranes with hNav1.7 and β1 subunit, 18 h, room temperature, trifluoroacetic acid salt): 14.3 nM"
"C[C@H](c1cc(Cl)cc(Cl)c1)N1CCC(COc2cc(F)c(C(=O)NS(=O)(=O)C3CC3)cc2C2CC2)CC1 [Example 269, (R)-5-cyclopropyl-N-(cyclopropylsulfonyl)-4-((1-(1-(3,5-dichlorophenyl)ethyl)piperidin-4-yl)methoxy)-2-fluorobenzamide]",,IC50: 3.4 nM
"CS(=O)(=O)NC(=O)c1cc(C2CC2)c(OCC2CCN(Cc3cc(Cl)cc(C(F)(F)F)c3)CC2)cc1F [Example 137, 4-((1-(3-Chloro-5-(trifluoromethyl)benzyl)piperidin-4-yl)methoxy)-5-cyclopropyl-2-fluoro-N-(methylsulfonyl)benzamide]",2.05,
"CS(=O)(=O)NC(=O)c1cc(C2CC2)c(OC[C@@H]2C[C@H]3CC[C@@H](C2)N3Cc2cc(C(F)(F)F)ccc2Cl)cc1F [Example 399, 4-(((1R,3S,5S)-8-(2-chloro-5-(trifluoromethyl)benzyl)-8-azabicyclo[3.2.1]octan-3-yl)methoxy)-5-cyclopropyl-2-fluoro-N-(methylsulfonyl)benzamide, trifluoroacetic acid salt]",4.6,
O=C(NS(=O)(=O)N1CCC1)c1cc(C2CC2)c(O[C@@H]2CCCN(Cc3ccc(F)cc3)C2)cc1F [Example 22],,IC50: 18.2 nM
"Cn1nc(-c2ccccc2)cc1CN1CCC[C@@H](Oc2cc(F)c(C(=O)NS(C)(=O)=O)cc2C2CC2)C1 [Example 12, (R)-5-cyclopropyl-2-fluoro-4-((1-((1-methyl-3-phenyl-1H-pyrazol-5-yl)methyl)piperidin-3-yl)oxy)-N-(methylsulfonyl)benzamide]",,IC50: 11.3 nM

# Reference: patent US9546164B2 (GENENTECH, INC., priority 2013, dated 2017)
